# From patent US10590113B2, “6-hydroxy-4-oxo-1,4-dihydropyrimidine-5-carboxamides as APJ agonists” (priority 2016, dated 2020)
# Target: T1, human APJ receptor (Homo sapiens, UniProt P35414)
# T1 construct: expressed in transfected cells; host or cells: HEK293
# T1 sequence (P35414 1-380): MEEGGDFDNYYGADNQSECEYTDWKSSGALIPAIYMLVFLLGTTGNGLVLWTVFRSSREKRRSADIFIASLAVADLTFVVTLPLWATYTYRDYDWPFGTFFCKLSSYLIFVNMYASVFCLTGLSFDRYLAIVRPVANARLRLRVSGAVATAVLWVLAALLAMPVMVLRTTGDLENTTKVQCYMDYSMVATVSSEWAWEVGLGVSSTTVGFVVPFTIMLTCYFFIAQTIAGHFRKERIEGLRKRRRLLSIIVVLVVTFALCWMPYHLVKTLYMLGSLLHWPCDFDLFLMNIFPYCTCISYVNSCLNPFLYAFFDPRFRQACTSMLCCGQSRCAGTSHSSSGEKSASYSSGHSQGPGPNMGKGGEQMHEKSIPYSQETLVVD
# Experiment: Intracellular cAMP Accumulation Assay (APJ hcAMP, HTRF)
# Assay type: cell-based
# Conditions: human APJ, cAMP accumulation; potency range class; read-out: hAPJ cAMP EC50 Potency range
# Outline: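 Stably transfected HEK293 cells (5,000/well) incubated 30 min at room temperature with serially diluted compound, […] and 2 μM forskolin. cAMP measured by HTRF after 60 min with detection reagents, quantified against a cAMP standard curve; EC50 from variable-slope sigmoidal fit of inhibition of forskolin-stimulated cAMP.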
row,EC50,Structure (SMILES)
1,0.01 to 10 nM,"CCc1cccc(CC)c1-n1c(-c2csc(C(C)C)n2)nc(=O)c(C(=O)N2CC[C@@H](c3ccccc3)C2)c1O [Example 299, 1-(2,6-diethylphenyl)-6-hydroxy-5-[(3S)-3-phenylpyrrolidine-1-carbonyl]-2-[2-(propan-2-yl)-1,3-thiazol-4-yl]-1,4-dihydropyrimidin-4-one]"
2,0.01 to 10 nM,"COc1cccc(OC)c1-n1c(-c2cccc(C)c2)nc(=O)c(C(=O)N2CCC(c3c(F)cccc3F)C2)c1O (single isomer, unassigned) [Example 241, 5-[3-(2,6-difluorophenyl)pyrrolidine-1-carbonyl]-1-(2,6-dimethoxyphenyl)-6-hydroxy-2-(3-methylphenyl)-1,4-dihydropyrimidin-4-one]"
3,0.01 to 10 nM,"COc1cccc(OC)c1-n1c(-c2ccc(Cl)nc2)nc(=O)c(C(=O)N2CCC(c3c(F)cccc3F)C2)c1O (single isomer, unassigned) [Example 281, 2-(6-chloropyridin-3-yl)-5-[3-(2,6-difluorophenyl)pyrrolidine-1-carbonyl]-1-(2,6-dimethoxyphenyl)-6-hydroxy-1,4-dihydropyrimidin-4-one]"
4,0.01 to 10 nM,"CCOCc1nc(=O)c(C(=O)N2CCC(c3ccccc3C#N)C2)c(O)n1-c1c(OC)cccc1OC (single isomer, unassigned) [Example 363, 2-(1-(1-(2,6-dimethoxyphenyl)-2-(ethoxymethyl)-6-hydroxy-4-oxo-1,4-dihydropyrimidine-5-carbonyl)pyrrolidin-3-yl)benzonitrile]"
5,0.01 to 10 nM,"COc1cccc(OC)c1-n1c(-c2ccc(F)cc2)nc(=O)c(C(=O)N2CCC(c3ncc(Cl)cc3F)C2)c1O (single isomer, unassigned) [Example 265, 5-[3-(5-chloro-3-fluoropyridin-2-yl)pyrrolidine-1-carbonyl]-1-(2,6-dimethoxyphenyl)-2-(4-fluorophenyl)-6-hydroxy-1,4-dihydropyrimidin-4-one]"
6,0.01 to 10 nM,"CCc1cccc(CC)c1-n1c(-c2ccn(C(C)C)n2)nc(=O)c(C(=O)N2CCC(c3ccccc3F)C2)c1O (single isomer, unassigned) [Example 295, 1-(2,6-diethylphenyl)-5-[3-(2-fluorophenyl)pyrrolidine-1-carbonyl]-6-hydroxy-2-[1-(propan-2-yl)-1H-pyrazol-3-yl]-1,4-dihydropyrimidin-4-one]"
7,0.01 to 10 nM,"CCn1ccc(-c2nc(=O)c(C(=O)N3CCC(c4ccc(F)cc4F)C3)c(O)n2-c2c(OC)cccc2OC)n1 (single isomer, unassigned) [Example 269, 5-[3-(2,4-difluorophenyl)pyrrolidine-1-carbonyl]-1-(2,6-dimethoxyphenyl)-2-(1-ethyl-1H-pyrazol-3-yl)-6-hydroxy-1,4-dihydropyrimidin-4-one]"
8,0.01 to 10 nM,"COc1cccc(OC)c1-n1c(-c2ccn(C)n2)nc(=O)c(C(=O)N2CCC(c3ncc(Cl)cc3F)C2)c1O (single isomer, unassigned) [Example 259, 5-[3-(5-chloro-3-fluoropyridin-2-yl)pyrrolidine-1-carbonyl]-1-(2,6-dimethoxyphenyl)-6-hydroxy-2-(1-methyl-1H-pyrazol-3-yl)-1,4-dihydropyrimidin-4-one]"
9,0.01 to 10 nM,"COc1ccnc(-c2nc(=O)c(C(=O)N3CCC(c4c(F)cccc4F)C3)c(O)n2-c2c(OC)cccc2OC)c1 (single isomer, unassigned) [Example 273, 5-[3-(2,6-difluorophenyl)pyrrolidine-1-carbonyl]-1-(2,6-dimethoxyphenyl)-6-hydroxy-2-(4-methoxypyridin-2-yl)-1,4-dihydropyrimidin-4-one]"

# Same assay, conditions: human APJ, intracellular cAMP accumulation; read-out: hAPJ cAMP EC50 Potency range
row,EC50,Structure (SMILES)
1,10 to 100 nM,"CCCCc1nc(=O)c(C(=O)N2CC[C@H](c3ccccc3)C2)c(O)n1[C@H](COC)c1ccccc1 [Example 152, 2-butyl-6-hydroxy-3-[(1S)-2-methoxy-1-phenylethyl]-5-[(3R)-3-phenylpyrrolidine-1-carbonyl]-3,4-dihydropyrimidin-4-one]"
2,0.01 to 10 nM,"CCOCc1nc(=O)c(C(=O)N2CCC(c3cccc(Cl)c3)C2)c(O)n1-c1c(OC)cccc1OC (racemic) [Example 26, 5-(3-(3-chlorophenyl)pyrrolidine-1-carbonyl)-1-(2,6-dimethoxyphenyl)-2-(ethoxymethyl)-6-hydroxypyrimidin-4(1H)-one]"
3,0.01 to 10 nM,"CC[C@@H](c1cc(F)cc(F)c1)n1c(-c2ccn(C)n2)nc(=O)c(C(=O)N2CCC(c3ccc(Cl)cn3)C2)c1O (single isomer, unassigned) [Example 190]"
4,10 to 100 nM,"CCCCc1nc(=O)c(C(=O)N2CC[C@@H](c3ccccc3)C2)c(O)n1C(C)c1ccccc1Cl (stereo partly drawn) [Example 133, 2-butyl-3-[1-(2-chlorophenyl)ethyl]-6-hydroxy-5-[(3S)-3-phenylpyrrolidine-1-carbonyl]-3,4-dihydropyrimidin-4-one]"
5,0.01 to 10 nM,"COc1cccc(OC)c1-n1c(CCC2CC2)nc(=O)c(C(=O)N2CCN(Cc3cccc(F)c3F)CC2)c1O [Example 173, 2-(2-cyclopropylethyl)-5-{4-[(2,3-difluorophenyl)methyl]piperazine-1-carbonyl}-1-(2,6-dimethoxyphenyl)-6-hydroxy-1,4-dihydropyrimidin-4-one]"
6,0.01 to 10 nM,"COc1cccc(OC)c1-n1c(CCC2CC2)nc(=O)c(C(=O)N2CCC(c3ncccc3F)C2)c1O (single isomer, unassigned) [Example 179, 2-(2-cyclopropylethyl)-1-(2,6-dimethoxyphenyl)-5-[3-(3-fluoropyridin-2-yl)pyrrolidine-1-carbonyl]-6-hydroxy-1,4-dihydropyrimidin-4-one]"
7,0.01 to 10 nM,"CCCCc1nc(=O)c(C(=O)N2Cc3ccc(C#N)cc3C2)c(O)n1-c1c(OC)cccc1OC [Example 65, 2-[2-butyl-1-(2,6-dimethoxyphenyl)-6-hydroxy-4-oxo-1,4-dihydropyrimidine-5-carbonyl]-2,3-dihydro-1H-isoindole-5-carbonitrile]"
8,0.01 to 10 nM,"CC[C@@H](c1cc(F)cc(F)c1)n1c(-c2ccn(CC)n2)nc(=O)c(C(=O)N2CCC(c3ncccc3F)C2)c1O (single isomer, unassigned) [Example 181]"
9,0.01 to 10 nM,"COc1cccc(OC)c1-n1c(CC2CC2)nc(=O)c(C(=O)N2CCC(c3cccc(Cl)c3)C2)c1O (racemic) [Example 28, 5-(3-(3-chlorophenyl)pyrrolidine-1-carbonyl)-2-(cyclopropylmethyl)-1-(2,6-dimethoxyphenyl)-6-hydroxypyrimidin-4(1H)-one]"
10,0.01 to 10 nM,"CC[C@@H](c1cc(F)cc(F)c1)n1c(-c2ccn(CC)n2)nc(=O)c(C(=O)N2CCC(c3ccc(F)cn3)C2)c1O (single isomer, unassigned) [Example 216]"
11,10 to 100 nM,"CCCCc1nc(=O)c(C(=O)N2Cc3ccncc3C2)c(O)n1-c1c(OC)cccc1OC [Example 60, 2-butyl-1-(2,6-dimethoxyphenyl)-6-hydroxy-5-{1H,2H,3H-pyrrolo[3,4-c]pyridine-2-carbonyl}-1,4-dihydropyrimidin-4-one]"
12,0.01 to 10 nM,"COc1cccc(OC)c1-n1c(COC(C)C)nc(=O)c(C(=O)N2CCC(c3cccc(F)c3)C2)c1O (single isomer, unassigned) [Example 97, 1-(2,6-dimethoxyphenyl)-5-[3-(3-fluorophenyl)pyrrolidine-1-carbonyl]-6-hydroxy-2-[(propan-2-yloxy)methyl]-1,4-dihydropyrimidin-4-one]"
13,0.01 to 10 nM,"CC[C@@H](c1cc(F)cc(F)c1)n1c(-c2cnn(C)c2)nc(=O)c(C(=O)N2CCC(c3ncccc3F)C2)c1O (single isomer, unassigned) [Example 219]"
14,10 to 100 nM,"CCCCc1nc(=O)c(C(=O)N2CC[C@@H](c3ccccc3)C2)c(O)n1C(C)c1ccccc1 (stereo partly drawn) [Example 136, 2-butyl-6-hydroxy-3-(1-phenylethyl)-5-[(3S)-3-phenylpyrrolidine-1-carbonyl]-3,4-dihydropyrimidin-4-one]"
15,0.01 to 10 nM,"COc1cccc(OC)c1-n1c(CC2CC2)nc(=O)c(C(=O)N2CC[C@@H](c3ccccc3)C2)c1O [Example 31, (S)-2-(cyclopropylmethyl)-3-(2,6-dimethoxyphenyl)-6-hydroxy-5-(3-phenylpyrrolidine-1-carbonyl)pyrimidin-4(3H)-one]"
16,0.01 to 10 nM,"CCCCc1nc(=O)c(C(=O)N2CC[C@@H](OCc3ccccc3)C2)c(O)n1-c1c(OC)cccc1OC [Example 59, 5-[(3R)-3-(benzyloxy)pyrrolidine-1-carbonyl]-2-butyl-1-(2,6-dimethoxyphenyl)-6-hydroxy-1,4-dihydropyrimidin-4-one]"
17,0.01 to 10 nM,"CC[C@@H](c1cc(F)cc(F)c1)n1c(-c2cnn(C)c2)nc(=O)c(C(=O)N2CCC(c3ncc(F)cc3F)C2)c1O (single isomer, unassigned) [Example 188]"
18,0.01 to 10 nM,"CC[C@@H](c1cc(F)cc(F)c1)n1c(-c2cnn(C)c2)nc(=O)c(C(=O)N2CCC(c3ccccc3OC)C2)c1O (single isomer, unassigned) [Example 198]"

# Same assay, conditions: read-out: hAPJ cAMP EC50 Potency range
row,EC50,Structure (SMILES)
1,0.01 to 10 nM,"CCOCc1nc(=O)c(C(=O)N2CCC(Oc3cc(F)ccc3Cl)CC2)c(O)n1-c1c(OC)cccc1OC [Example 378, 5-(4-(2-chloro-5-fluorophenoxy)piperidine-1-carbonyl)-1-(2,6-dimethoxyphenyl)-2-(ethoxymethyl)-6-hydroxypyrimidin-4(1H)-one]"
